Laboratory results taken from publication PMC8348310, “Antioxidants Isolated from Elaeagnus umbellata (Thunb.) Protect against Bacterial Infections and Diabetes in Streptozotocin-Induced Diabetic Rat Model” (Molecules, 2021).
In brackets after ≈: the same amount, converted by molar mass. Several values for one entry are separate records, joined by “and”; a condition that tells them apart may be missing. Identical values can stand only once.

Columns and labels:
Proteus mirabilis = assay: Agar well diffusion, zone of inhibition; format: cell-based; conditions: 37 °C, 24 h; for Zone of Inhibition: 100 µg/mL
Description: (§1) Antibacterial potential of isolated compound was investigated against both Gram-positive and Gram-negative bacterial strains; Escherichia coli, Bacillus cereus, Salmonella typhi, Klebsiella pneumonia, Pseudomonas aeruginosa and Proteus mirabilis. Bacterial strains were provided by the Department of Pharmacy, University of Malakand, Khyber Pakhtunkhwa, Pakistan, and were kept at 4 °C in agar slants in freeze-dried condition until further use.
(§2) Both Gram-positive and Gram-negative bacterial strains Escherichia coli, Bacillus cereus, Salmonella typhi, Klebsiella pneumonia, Pseudomonas aeruginosa and Proteus mirabilis organism viable count per mL in the stock suspension was determined using surface viable counting technique. About 10^8–10^9 colony-forming units (CFU) per mL were used as inoculum in subsequent experiments. A fresh stock suspension was used each time.
(§3) The antibacterial activity of the isolated compounds (morin, phloroglucinol, and 1-hexyl benzene) was determined using agar well diffusion method. Muller–Hinton agar media was prepared and autoclaved at 15 lbs pressure for 20 min and cooled to 45 °C. The standard bacterial stock suspension 10^8–10^9 CFU/mL were spread on Muller–Hinton agar plates and five wells (3 mm in diameter; four on side and one in center) were punched in plates using a sterile cork borer. The entire wells were filled with 100 µL of the isolated compounds (stock solution: 1 mg/mL) using microtiter-pipette and allowed to diffuse at room temperature for 2 h. The plates were incubated at 37 °C for 24 h. In the center hole, Imipenem was added which served as positive control. Simultaneous, addition of an equal concentration of DMSO solvent instead of isolated compounds was used as blank. After incubation, the zones of inhibition were measured in millimeters (mm) and mean values were calculated. The experiments were performed in triplicates.

Klebsiella pneumonia = assay: Agar well diffusion, zone of inhibition; format: cell-based; conditions: 37 °C, 24 h; for Zone of Inhibition: 100 µg/mL; for zone of inhibition at 100 µg/mL: Klebsiella pneumoniae
Description: as §1, §2, §3

Escherichia coli = assay: Agar well diffusion, zone of inhibition; format: cell-based; conditions: 37 °C, 24 h; for Zone of Inhibition: 100 µg/mL
Description: as §1, §2, §3

Bacillus cereus = assay: Agar well diffusion, zone of inhibition; format: cell-based; conditions: 37 °C, 24 h; for Zone of Inhibition: 100 µg/mL
Description: as §1, §2, §3

Pseudomonas aeruginosa = assay: Agar well diffusion, zone of inhibition; format: cell-based; conditions: 37 °C, 24 h; for Zone of Inhibition: 100 µg/mL
Description: as §1, §2, §3

[1] = ABTS free radical scavenging assay; format: biochemical; conditions: for ABTS IC50: linear regression of % scavenging vs concentration
Description: ABTS (2,2′-azinobis-3-ethylbenzothiazoline-6-sulfonic acid) free radicals inhibition potential were determined according to the reported assay. ABTS solution was prepared in methanol (100 mL). In total, 300 µL of compound (morin, phloroglucinol, and 1-hexyl benzene) was mixed thoroughly with 3.0 mL ABTS solution and incubated for six minutes. Finally, the absorbance was measured through UV spectrophotometer using ascorbic acid as positive control. Percent ABTS free radicals scavenging potential was calculated using the equation No. 1.
All the in vitro and in vivo experiments were analyzed in three replicates and determined as mean ± SEM. Student’s t-test and one way ANOVA followed by Dunnett’s post hoc multiple comparison test was used. p ≤ 0.05 were considered as significant. Linear regression analysis was used to calculate the IC50 value for % DPPH, ABTS, α-amylase, and α-glucosidase inhibition against the different concentrations of the test samples by means of Excel program 2007.

Staphylococcus aureus [2] = assay: Broth dilution MIC determination; format: cell-based; conditions: 37 °C, 24 h, read-out: Minimum Inhibitory Concentrations
Description: Stock solutions of morin, phloroglucinol, and 1-hexyl benzene were prepared in dimethylsulphoxide (DMSO). […] Sterile centrifuge tubes were arranged in sets of rows for each bacterial inoculum to cover the different concentration of isolated compounds in triplicate. […] A sterility control tube and a growth control tube were also incubated (for each strain). The tubes were incubated at 37 °C for 24 h. After incubation, 40 μL of a 0.4 mg/mL solution of para iodonitrotetrazolium (INT) chloride was added to each tube as an indicator of microbial growth. […] The evaluation for the inhibition of microbial growth was based on the color change of INT to pink, while no color change indicates the absence of growth. The MIC is the lowest concentration of the compounds at which there is no visible growth in the tubes. The concentration that inhibited bacterial growth completely (the first clear tube) was taken as the MIC value. Experiments were performed in triplicate and mean values are presented. […] A negative control experiment was conducted using only DMSO.

Salmonella typhi = assay: Agar well diffusion, zone of inhibition; format: cell-based; conditions: 24 h; for zone of inhibition at 100 µg/mL: Salmonella enterica, TYPHI; for Zone of Inhibition: Salmonella typhi, 100 µg/mL, 37 °C
Staphylococcus aureus [3] = assay: Agar well diffusion, zone of inhibition; format: cell-based; conditions: 37 °C, 24 h; for Zone of Inhibition: 100 µg/mL
Description: as §3, with “The standard bacterial stock suspension 10^8–10^9 CFU/mL were spread on Muller–Hinton agar plates and five wells (3 mm in diameter; four on side and one in center) were punched in plates using a sterile cork borer.” left out

SMILES | Zone of Inhibition (Proteus mirabilis) | zone of inhibition at 100 µg/mL (Proteus mirabilis) | Zone of Inhibition (Klebsiella pneumonia) | zone of inhibition at 100 µg/mL (Klebsiella pneumonia) | Zone of Inhibition (Escherichia coli) | zone of inhibition at 100 µg/mL (Escherichia coli) | Zone of Inhibition (Bacillus cereus) | zone of inhibition at 100 µg/mL (Bacillus cereus) | Zone of Inhibition (Pseudomonas aeruginosa) | zone of inhibition at 100 µg/mL (Pseudomonas aeruginosa) | % ABTS Scavenging Mean ± SEM ([1]; 31.05 µg/mL) | % ABTS Scavenging Mean ± SEM ([1]; 62.5 µg/mL) | % ABTS Scavenging Mean ± SEM ([1]; 125 µg/mL) | % ABTS Scavenging Mean ± SEM ([1]; 250 µg/mL) | % ABTS Scavenging Mean ± SEM ([1]; 500 µg/mL) | % ABTS Scavenging Mean ± SEM ([1]; 1000 µg/mL) | ABTS IC50 [1] | MIC (Staphylococcus aureus [2]) | zone of inhibition at 100 µg/mL (Salmonella typhi) | Zone of Inhibition (Salmonella typhi) | also measured
Oc1cc(O)cc(O)c1 [Phloroglucinol, Benzene-1,3,5-triol] | 7.5 ± 0.2 mm | 7.5 ± 0.2 mm | 11 ± 0.5 mm | 11 ± 0.5 mm | 15 ± 0.3 mm | 15 ± 0.3 mm | 13 ± 1.2 mm | 13 ± 1.2 mm | 10 ± 1.1 mm | 10 ± 1.1 mm | 25 ± 1.0 % | 33 ± 0.5 % | 39 ± 1.2 % | 45 ± 1.0 % | 51 ± 0.5 % | 64 ± 1.1 % | 112 mg/L | 192 ± 2.3 mg/L (≈ 1520 µM) | 12 ± 1.1 mm | 12 ± 1.1 mm | Zone of Inhibition (Staphylococcus aureus [3]): 9.5 ± 2.1 mm; zone of inhibition at 100 µg/mL (Staphylococcus aureus [3]): 9.5 ± 2.1 mm
CCCCCCc1ccccc1 [1-Hexyl benzene, 1-hexylbenzene] | 4.5 ± 1.5 mm | 4.5 ± 1.5 mm | 6.3 ± 0.5 mm | 6.3 ± 0.5 mm | 9.3 ± 1.1 mm | 9.3 ± 1.1 mm | 8.5 ± 0.1 mm | 8.5 ± 0.1 mm | 5.5 ± 0.5 mm | 5.5 ± 0.5 mm | 19 ± 1.4 % | 26 ± 0.5 % | 31 ± 1.0 % | 39 ± 1.5 % | 47 ± 2.2 % | 55 ± 1.1 % | 129 mg/L | 205 ± 2.1 mg/L (≈ 1260 µM) | 7.4 ± 1.2 mm | 7.4 ± 1.2 mm | Zone of Inhibition (Staphylococcus aureus [3]): 3.4 ± 0.4 mm; zone of inhibition at 100 µg/mL (Staphylococcus aureus [3]): 3.4 ± 0.4 mm
O=c1c(O)c(-c2ccc(O)cc2O)oc2cc(O)cc(O)c12 [Morin, 2-(2,4-Dihydroxyphenyl)-3,5,7-trihydroxychromen-4-one] | 11 ± 1.5 mm | 11 ± 1.5 mm | 15 ± 0.5 mm | 15 ± 0.5 mm | 19 ± 1.1 mm | 19 ± 1.1 mm | 17 ± 0.1 mm | 17 ± 0.1 mm | 14 ± 0.5 mm | 14 ± 0.5 mm | 45 ± 0.5 % | 57 ± 1.4 % | 64 ± 1.2 % | 75 ± 0.5 ^ns % | 80 ± 1.0 ^ns % | 88 ± 1.0% and 88 ± 1.0 ^ns % | 40 mg/L | 68 ± 1.3 mg/L (≈ 225 µM) | 16 ± 1.2 mm | 16 ± 1.2 mm | Zone of Inhibition (Staphylococcus aureus [3]): 13 ± 0.4 mm; zone of inhibition at 100 µg/mL (Staphylococcus aureus [3]): 13 ± 0.4 mm
